In patent US9808466B2, “Macrocyclic compounds as protein kinase inhibitors” (Fundación Centro Nacional de Investigaciones Oncologicas …, priority 2011, dated 2017):
Read-outs that look alike come from different tables or passages of the source.

Tests used:
PIM-1 = molecular target: T1, PIM-1 (Homo sapiens, UniProt P11309); experiment: PIM-1 biochemical assay (ADP Hunter)
T1 construct: histidine tag (C); made in house
Description: The biochemical assay to measure PIM-1 activity relies on the ADP Hunter assay kit (DiscoveRx Corp., Cat. #90-0077), that determines the amount of ADP as direct product of the kinase enzyme activity.
The enzyme has been expressed and purified in-house as a recombinant human protein with a C-terminal histidine tag. The protein is active and stable.
Assay conditions were as indicated by the kit manufacturers with the following adaptations for the kinase activity step: • Kinase assay buffer and assay volume stay as recommended (15 mM HEPES, pH 7.4, 20 mM NaCl, 1 mM EGTA, 0.02% Tween 20, 10 mM MgCl2 and 0.1 mg/ml bovine γ-globulins/75 μl assay volume) • Incubation time and temperature: 60 min at 30° C. • PIM-1 concentration: 50 pg/μl • ATP concentration: 100 μM • PIM-1 substrate peptide: PIMtide ([…]) (SEQIDNO. 1) • Peptide concentration: 60 μM • Positive control for kinase activity inhibition: 1-10 μM Staurosporine • DMSO concentration have to stay below 2% during the kinase reaction
Assays were performed in either 96 or 384-well plates. The final outcome of the coupled reactions provided by the kit is the release of the fluorescent product Resorufin and has been measured with a multilabel HTS counter VICTOR V (PerkinElmer) using an excitation filter at 544 nm and an emission filter at 580 nm.

mTOR = molecular target: T2, mTOR (Homo sapiens, UniProt P42345); experiment: mTOR assay (LanthaScreen kinase activity assay); type: biochemical
T2 construct: purchased Invitrogen PV4754
Procedure: The enzymatic mTOR activity was measured using a LanthaScreen™ kinase activity assay (Invitrogen). The enzyme was purchased from Invitrogen (PV4754), as well as the GFP-labeled substrate (4EBP1-GFP; PV4759) and the Tb-anti-p4EBP1(pThr46) antibody (PV4757). The assay was performed in 50 mM HEPES buffer, pH 7.5, containing 1.5 mM MnCl2, 10 mM MgCl2, 1 mM EGTA, 2.5 mM DTT and 0.01% Tween-20. The concentration of the assay components were the following: 0.24 nM mTOR kinase, 400 nM 4EBP1-GFP, […] and serial dilutions of the compound (inhibitor) to be evaluated. After 1 h incubation at room temperature, 20 mM EDTA was used to stop the reaction and terbium-labeled antibody (4 nM) added to detect phosphorylated product. The antibody associates with the phosphorylated product resulting in an increased TR-FRET value. The TR-FRET value (a dimensionless number) was calculated as the ratio of the acceptor signal (GFP, emission at 520 nm) to the donor signal (terbium, emission at 495 nm). Values were plotted against the inhibitor concentration and fitted to a sigmoid dose-response curve using GraphPad software.

PI3K (p110α/p85α) = molecular target: T3, PI3K (p110α/p85α) (Homo sapiens, UniProt P42336); experiment: PI3K activity assay (ADP Hunter Plus); type: biochemical
T3 construct: purchased Carna Biosciences 07CBS-0402A
Procedure: The kinase activity was measured by using the commercial ADP Hunter™ Plus assay available from DiscoveRx (#33-016), which is a homogeneous assay to measure the accumulation of ADP, a universal product of kinase activity. […] Reaction was carried out for 1 hour at 25° C. Reagent A and B were sequentially added to the wells and plates were incubated for 30 min at 37° C. Fluorescence counts were read in a Victor instrument (Perkin Elmer) with the recommended settings (544 and 580 nm as excitation and emission wavelengths, respectively). Values were normalized against the control activity included for each enzyme (i.e., 100% PI3 kinase activity, without compound). These values were plotted against the inhibitor concentration and were fit to a sigmoid dose-response curve by using the Graphad software.

[1] = PIM1, read-out: PIM-1 activity, IC50 (semi-quantitative class)
[2] = read-out: mTOR activity, IC50 (semi-quantitative class)
[3] = read-out: PI3K alpha activity, IC50 (semi-quantitative class)
[4] = PIM1, read-out: PIM-1 actual IC50 (in parentheses)
[5] = read-out: mTOR actual IC50 (in parentheses)
[6] = read-out: PI3K alpha actual IC50 (in parentheses)
[7] = read-out: PIM-1 activity (semi-quantitative IC50)
[8] = read-out: mTOR activity (semi-quantitative IC50)
[9] = read-out: PI3K alpha activity (semi-quantitative IC50)
[10] = read-out: PIM-1 IC50 (in parentheses)
[11] = read-out: mTOR IC50 (in parentheses)
[12] = read-out: PI3K alpha IC50 (in parentheses)

T3 sequence (P42336 whole entry): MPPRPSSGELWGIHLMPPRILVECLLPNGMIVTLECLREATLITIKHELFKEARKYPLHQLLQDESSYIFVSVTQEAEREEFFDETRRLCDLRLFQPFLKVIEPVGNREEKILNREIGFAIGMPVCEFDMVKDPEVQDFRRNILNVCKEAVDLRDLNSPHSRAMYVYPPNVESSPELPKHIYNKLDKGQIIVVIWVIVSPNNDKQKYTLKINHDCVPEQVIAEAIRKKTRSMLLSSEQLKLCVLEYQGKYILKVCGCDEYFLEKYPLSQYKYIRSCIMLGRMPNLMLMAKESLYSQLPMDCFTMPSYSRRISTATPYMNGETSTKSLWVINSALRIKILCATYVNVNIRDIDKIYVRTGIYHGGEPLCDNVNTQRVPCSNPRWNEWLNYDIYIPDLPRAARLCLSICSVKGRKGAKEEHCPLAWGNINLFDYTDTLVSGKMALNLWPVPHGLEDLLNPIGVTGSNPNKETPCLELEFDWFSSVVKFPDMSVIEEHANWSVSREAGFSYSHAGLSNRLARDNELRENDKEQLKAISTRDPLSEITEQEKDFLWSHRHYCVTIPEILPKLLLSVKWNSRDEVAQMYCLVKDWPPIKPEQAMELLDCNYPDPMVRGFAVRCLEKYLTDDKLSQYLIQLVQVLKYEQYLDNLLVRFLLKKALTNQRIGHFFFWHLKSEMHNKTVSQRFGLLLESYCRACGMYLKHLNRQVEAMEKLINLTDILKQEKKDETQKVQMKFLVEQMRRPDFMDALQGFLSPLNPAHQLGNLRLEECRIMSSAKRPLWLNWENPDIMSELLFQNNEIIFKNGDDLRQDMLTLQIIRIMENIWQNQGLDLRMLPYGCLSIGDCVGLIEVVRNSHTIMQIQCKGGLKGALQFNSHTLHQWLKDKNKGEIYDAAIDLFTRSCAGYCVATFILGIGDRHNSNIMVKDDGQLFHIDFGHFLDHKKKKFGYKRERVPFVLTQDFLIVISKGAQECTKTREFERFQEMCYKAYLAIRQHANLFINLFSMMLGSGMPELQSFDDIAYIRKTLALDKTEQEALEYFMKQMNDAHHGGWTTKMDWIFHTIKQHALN
T3 sequence (P27986 whole entry partner): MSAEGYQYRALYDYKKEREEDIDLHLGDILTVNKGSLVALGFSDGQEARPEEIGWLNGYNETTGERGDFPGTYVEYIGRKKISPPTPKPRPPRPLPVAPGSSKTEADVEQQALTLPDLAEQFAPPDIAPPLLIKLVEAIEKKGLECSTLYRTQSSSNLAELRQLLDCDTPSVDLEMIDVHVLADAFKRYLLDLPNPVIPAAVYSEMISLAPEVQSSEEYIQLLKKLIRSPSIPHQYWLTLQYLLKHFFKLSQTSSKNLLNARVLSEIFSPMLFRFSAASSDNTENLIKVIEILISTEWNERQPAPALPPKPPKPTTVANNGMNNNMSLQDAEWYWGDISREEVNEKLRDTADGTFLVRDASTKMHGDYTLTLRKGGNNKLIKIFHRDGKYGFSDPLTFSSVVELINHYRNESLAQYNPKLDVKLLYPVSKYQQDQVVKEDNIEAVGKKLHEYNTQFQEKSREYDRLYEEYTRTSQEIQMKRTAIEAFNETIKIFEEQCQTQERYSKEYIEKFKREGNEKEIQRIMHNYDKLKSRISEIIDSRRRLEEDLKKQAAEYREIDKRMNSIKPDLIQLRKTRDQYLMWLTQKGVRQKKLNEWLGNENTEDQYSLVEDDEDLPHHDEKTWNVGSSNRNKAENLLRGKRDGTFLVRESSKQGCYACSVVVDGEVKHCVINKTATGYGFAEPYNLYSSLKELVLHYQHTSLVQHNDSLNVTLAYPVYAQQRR
T1 sequence (P11309 whole entry): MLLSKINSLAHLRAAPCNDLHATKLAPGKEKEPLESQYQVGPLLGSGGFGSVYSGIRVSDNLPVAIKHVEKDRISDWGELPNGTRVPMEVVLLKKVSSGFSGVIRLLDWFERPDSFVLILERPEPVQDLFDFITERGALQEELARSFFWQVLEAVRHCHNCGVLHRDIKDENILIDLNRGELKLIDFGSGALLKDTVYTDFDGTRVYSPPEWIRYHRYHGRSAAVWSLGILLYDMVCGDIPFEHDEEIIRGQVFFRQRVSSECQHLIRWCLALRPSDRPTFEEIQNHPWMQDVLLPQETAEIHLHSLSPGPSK
T2 sequence (P42345 1360-2549 limits assumed): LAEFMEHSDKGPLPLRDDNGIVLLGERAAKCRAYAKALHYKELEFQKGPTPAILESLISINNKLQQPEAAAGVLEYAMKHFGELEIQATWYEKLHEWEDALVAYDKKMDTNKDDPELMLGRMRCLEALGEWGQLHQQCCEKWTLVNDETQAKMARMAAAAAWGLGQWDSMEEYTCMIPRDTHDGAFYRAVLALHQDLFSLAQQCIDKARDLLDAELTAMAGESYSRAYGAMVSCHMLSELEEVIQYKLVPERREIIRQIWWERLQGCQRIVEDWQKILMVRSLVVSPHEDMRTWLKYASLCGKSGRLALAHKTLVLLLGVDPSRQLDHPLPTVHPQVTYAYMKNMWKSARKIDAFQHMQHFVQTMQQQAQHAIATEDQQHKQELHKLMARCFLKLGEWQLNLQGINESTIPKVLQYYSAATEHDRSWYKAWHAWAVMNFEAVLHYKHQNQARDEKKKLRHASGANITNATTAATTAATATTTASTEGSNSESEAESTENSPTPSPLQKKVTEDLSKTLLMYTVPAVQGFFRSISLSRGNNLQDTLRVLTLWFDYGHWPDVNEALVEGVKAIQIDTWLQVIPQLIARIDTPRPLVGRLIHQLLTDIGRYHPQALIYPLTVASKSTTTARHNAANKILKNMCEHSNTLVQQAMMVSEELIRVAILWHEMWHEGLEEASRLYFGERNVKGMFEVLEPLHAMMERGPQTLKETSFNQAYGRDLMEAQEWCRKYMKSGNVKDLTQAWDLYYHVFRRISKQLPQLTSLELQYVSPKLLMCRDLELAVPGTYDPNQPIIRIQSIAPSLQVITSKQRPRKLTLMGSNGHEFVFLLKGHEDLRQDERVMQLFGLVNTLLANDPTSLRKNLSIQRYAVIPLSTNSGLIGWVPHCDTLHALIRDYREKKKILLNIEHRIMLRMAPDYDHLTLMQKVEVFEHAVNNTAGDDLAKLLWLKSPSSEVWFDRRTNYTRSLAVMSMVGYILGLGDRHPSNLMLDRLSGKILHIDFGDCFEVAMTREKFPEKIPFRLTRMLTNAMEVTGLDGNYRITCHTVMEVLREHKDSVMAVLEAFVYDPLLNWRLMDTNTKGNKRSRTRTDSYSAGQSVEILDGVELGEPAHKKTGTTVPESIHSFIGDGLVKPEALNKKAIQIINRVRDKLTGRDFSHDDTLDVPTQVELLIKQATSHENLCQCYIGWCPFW

Structure (SMILES)	IC50 (PIM-1; [1])	IC50 (mTOR; [2])	IC50 (PI3K (p110α/p85α); [3])	IC50 (PIM-1; [7])	IC50 (mTOR; [8])	IC50 (PI3K (p110α/p85α); [9])	also measured
COc1ncc2cc1NS(=O)(=O)c1cccc(c1)C(=O)NCCn1cc(cn1)-c1nc(C(C)C)nc3c1SC2=C3 [compound 61]	> 1 µM	> 1 µM	> 1 µM	–	–	–	–
COc1ncc2cc1NS(=O)(=O)c1cccc(c1)C(=O)NCc1cncc(c1)-c1ccnc3c1SC2=C3 [compound 62]	< 0.1 µM	> 1 µM	0.1 to 1 µM	–	–	–	IC50 (PIM-1; [4]): 0.031 µM
COc1ncc2cc1NS(=O)(=O)c1cccc(c1)C(=O)NC[C@H]1CN(CCO1)c1ncnc3c1SC2=C3 [compound 64]	0.1 to 1 µM	> 1 µM	> 1 µM	–	–	–	–
COc1ncc2cc1NS(=O)(=O)c1cccc(c1)C(=O)NCc1cc(ccc1F)-c1ncnc3c1SC2=C3 [compound 65]	> 1 µM	> 1 µM	0.1 to 1 µM	–	–	–	–
COc1ncc2cc1NS(=O)(=O)c1cccc(c1)C(=O)NC[C@@H]1CN(CCO1)c1ncnc3c1SC2=C3 [compound 66]	< 0.1 µM	> 1 µM	0.1 to 1 µM	–	–	–	IC50 (PIM-1; [4]): 0.088 µM
COc1ncc2cc1NS(=O)(=O)c1cc(c(F)cc1F)C(=O)NCc1cccc(c1)-c1cnn3ccc-2nc13 [compound 67]	> 1 µM	< 0.1 µM	< 0.1 µM	–	–	–	IC50 (mTOR; [5]): 0.012 µM; IC50 (PI3K (p110α/p85α); [6]): 0.0005 µM
COc1ncc2cc1NS(=O)(=O)c1cccc(c1)C(=O)NCC1=CC=C(O1)c1ncnc3c1SC2=C3 [compound 69]	0.1 to 1 µM	> 1 µM	0.1 to 1 µM	–	–	–	–
COc1ncc2cc1NS(=O)(=O)c1cccc(c1)C(=O)NCCCNc1ncnc3c1SC2=C3 [compound 70]	0.1 to 1 µM	> 1 µM	> 1 µM	–	–	–	–
COc1ncc2cc1NS(=O)(=O)c1cc(c(F)cc1F)C(=O)NCc1cncc(c1)-c1ccnc3ccc-2nc13 [compound 71]	> 1 µM	< 0.1 µM	< 0.1 µM	–	–	–	IC50 (mTOR; [5]): 0.025 µM; IC50 (PI3K (p110α/p85α); [6]): 0.00015 µM
COc1ncc2cc1NS(=O)(=O)c1cccc(c1)C(=O)NCc1cc(F)cc(c1)-c1ncnc3c1SC2=C3 [compound 72]	0.1 to 1 µM	> 1 µM	> 1 µM	–	–	–	–
COc1ncc2cc1NS(=O)(=O)c1cccc(c1)C(=O)NCC1=CC=C(S1)c1c(C#N)cnc3c1SC2=C3 [compound 73]	< 0.1 µM	> 1 µM	> 1 µM	–	–	–	IC50 (PIM-1; [4]): 0.045 µM
COc1ncc2cc1NS(=O)(=O)c1cccc(c1)C(=O)NCc1csc(c1)-c1ncnc3c1SC2=C3 [compound 77]	< 0.1 µM	> 1 µM	0.1 to 1 µM	–	–	–	IC50 (PIM-1; [4]): 0.017 µM
COc1ncc2cc1NS(=O)(=O)c1cccc(c1)C(=O)NCC1=CC=C(S1)c1ccnc3[nH]c-2cc13 [compound 78]	0.1 to 1 µM	> 1 µM	0.1 to 1 µM	–	–	–	–
COc1ncc2cc1NS(=O)(=O)c1cccc(c1)C(=O)NCc1nc(cs1)-c1ncnc3c1SC2=C3 [compound 79]	> 1 µM	> 1 µM	0.1 to 1 µM	–	–	–	–
COc1ncc2cc1NS(=O)(=O)c1cccc(c1)C(=O)NCC1=CC=C(S1)c1ccnc3c1SC2=C3 [compound 80]	< 0.1 µM	> 1 µM	0.1 to 1 µM	–	–	–	IC50 (PIM-1; [4]): 0.015 µM
COc1ncc2cc1NS(=O)(=O)c1ccc(F)c(c1)C(=O)NCC1=CC=C(S1)c1ncnc3c1SC2=C3 [compound 82]	< 0.1 µM	> 1 µM	< 0.1 µM	–	–	–	IC50 (PIM-1; [4]): 0.013 µM; IC50 (PI3K (p110α/p85α); [6]): 0.057 µM
COc1ncc2cc1NS(=O)(=O)c1cccc(c1)C(=O)NC[C@H]1CCCN(C1)c1ncnc3c1SC2=C3 [compound 83]	0.1 to 1 µM	> 1 µM	> 1 µM	–	–	–	–
COc1ncc2cc1NS(=O)(=O)c1cccc(c1)C(=O)NC[C@@H]1CCCN(C1)c1ncnc3c1SC2=C3 [compound 84]	0.1 to 1 µM	> 1 µM	> 1 µM	–	–	–	–
O=C1NCc2cccc(c2)-c2cnn3ccc(nc23)-c2cnc(O)c(c2)NS(=O)(=O)c2cccc1c2 [compound 85]	–	–	–	> 1 µM	> 1 µM	0.1 to 1 µM	–
COc1ncc2cc1NS(=O)(=O)c1cccc(c1)C(=O)NC[C@@H]1CCN(C1)c1ncnc3c1SC2=C3 [compound 86]	–	–	–	0.1 to 1 µM	> 1 µM	> 1 µM	–
COc1ncc2cc1NS(=O)(=O)c1cccc(c1)C(=O)NC[C@H]1CCN(C1)c1ncnc3c1SC2=C3 [compound 87]	–	–	–	0.1 to 1 µM	> 1 µM	> 1 µM	–
COc1ncc2cc1NS(=O)(=O)c1cccc(c1)C(=O)NCC1=C(C)C=C(S1)c1ncnc3c1SC2=C3 [compound 88]	–	–	–	< 0.1 µM	> 1 µM	0.1 to 1 µM	IC50 (PIM-1; [10]): 0.069 µM
COc1ncc2cc1NS(=O)(=O)c1cccc(c1)C(=O)NCc1ccncc1-c1ncnc3c1SC2=C3 [compound 89]	–	–	–	> 1 µM	> 1 µM	> 1 µM	–
COc1ncc2cc1NS(=O)(=O)c1ccc(F)c(c1)C(=O)NCC1=CC=C(S1)c1ncnc3c1SC2=C3C [compound 90]	–	–	–	< 0.1 µM	< 0.1 µM	< 0.1 µM	IC50 (PIM-1; [10]): 0.027 µM; IC50 (mTOR; [11]): 0.056 µM; IC50 (PI3K (p110α/p85α); [12]): 0.0018 µM
COc1ncc2cc1NS(=O)(=O)c1cccc(c1)C(=O)NC[C@@H]1CN(CCO1)c1ncnc3c1SC2=C3C [compound 91]	–	–	–	< 0.1 µM	0.1 to 1 µM	< 0.1 µM	IC50 (PIM-1; [10]): 0.047 µM; IC50 (PI3K (p110α/p85α); [12]): 0.01 µM
COc1ncc2cc1NS(=O)(=O)c1cccc(c1)C(=O)NCc1cc(F)cc(c1)-c1ncnc3c1SC2=C3C [compound 92]	–	–	–	> 1 µM	> 1 µM	< 0.1 µM	IC50 (PI3K (p110α/p85α); [12]): 0.015 µM
COCCOc1ccc2cc1C(=O)NCC1=CC=C(S1)c1ncnc3c1SC(=C3)c1cnc(OC)c(c1)NS2(=O)=O [compound 93]	–	–	–	> 1 µM	< 0.1 µM	0.1 to 1 µM	IC50 (mTOR; [11]): 0.032 µM
COc1ncc2cc1NS(=O)(=O)c1cccc(c1)C(=O)NC[C@@H]1CCN(C1)c1ncnc3c1SC2=C3C [compound 94]	–	–	–	< 0.1 µM	> 1 µM	< 0.1 µM	IC50 (PIM-1; [10]): 0.065 µM; IC50 (PI3K (p110α/p85α); [12]): 0.026 µM
